TGI data for eight compounds are collected here from PubChem BioAssay (NCI).

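How tested: cells in 96-well plates exposed to compound for 48 hours at five concentrations. At the TGI there is no net growth.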

Holding throughout (experiment): NCI-60 cell line screen, 48 h
Assay [1] concerns BT-549 breast.
Assay [2] concerns COLO 205 colon.
The test system of assay [3] is HCT-15 colon.
For assay [4], the system named is HT29 colon.
In assay [5] the test system is LOX IMVI melanoma.
Assay [6] deals with MDA-MB-435.
For assay [7], the system named is MOLT-4 leukemia.
For assay [8], the system named is NCI-H522 lung.
For assay [9], the system named is OVCAR-8 ovarian.
For assay [10], the system named is SK-MEL-28 melanoma.
In assay [11] the test system is SK-OV-3 ovarian.
Assay [12] relates to SNB-19 CNS.
For assay [13], the system named is SR leukemia.
Assay [14] deals with SW-620 colon.
The test system of assay [15] is TK-10 renal.
Assay [16] concerns UACC-257 melanoma.
The test system of assay [17] is UACC-62 melanoma.
Assay [18] deals with HOP-62 NSCLC.
The test system of assay [19] is SK-MEL-5 melanoma.

As for `COc1cc(C)c2c(=O)c3ccccc3n(C)c2c1`, the TGI in [1] was 52.7 µM; in [2] it was 91.1 µM; in assay [3], greater than 100 µM; in [4], 29 µM; in assay [5] it was 34.4 µM; in [6], greater than 100 µM. Further, the TGI in assay [7] was greater than 100 µM; in assay [8], 5.74 µM; in assay [9] it was 78.8 µM; in assay [10], 89.3 µM; in [11] it was greater than 100 µM; in assay [12], 98.6 µM. For the same compound, the TGI in assay [13] is 43 µM; in assay [14], greater than 100 µM; in [15] it was greater than 100 µM; in [16] it was 77 µM; in [17] it was 39.2 µM.
As for `COc1cc(NC(C)=O)ccc1C(=O)N/N=C/c1ccc(Cl)cc1Cl`, the TGI in assay [1], in assay [2], in [3], in assay [18], in assay [4] and in assay [5] was greater than 100 µM each time. Besides, the TGI in assay [6] was 56.4 µM; in assay [7], greater than 100 µM; in assay [8] it was greater than 100 µM; in assay [9], greater than 100 µM; in assay [10], greater than 100 µM; in assay [19] it was greater than 100 µM. In addition, the TGI in assay [11] was greater than 100 µM; in assay [12], greater than 100 µM; in [13] it was greater than 100 µM; in assay [14], greater than 100 µM; in assay [16] it was 70.9 µM; in assay [17], greater than 100 µM.
For the compound `COc1c(C)c2c(c(=O)c3c(C)cccc3n2C)c2c1c(=O)c1c(C)cccc1n2C`, the TGI in assay [1], in assay [2], in [3], in assay [18], in assay [4] and in assay [5] was greater than 10 µM throughout. In addition, the TGI in [6], in [7], in assay [8], in assay [9], in [10] and in [19] was greater than 10 µM throughout. Further, the TGI in [11], in [12], in assay [13], in assay [15], in assay [16] and in assay [17] was greater than 10 µM each time.
For the compound `Cc1c(C)c2c(c(N)c1C#N)C(=O)N(Nc1ccccc1)C2=O`, the TGI in [1], in [2], in [3], in assay [5], in assay [6] and in assay [7] was greater than 100 µM each time. Also, the TGI in assay [8], in assay [9], in assay [10], in assay [19], in [12] and in assay [13] was greater than 100 µM each time. For the same compound, the TGI in assay [14], in [15], in [16] and in [17] was greater than 100 µM each time.
Turning to `O=C1C=C(Sc2ccccc2)c2nccc3c2c1nc1ccccc13`, the TGI in [1] stood at 31.4 µM; in [2], 31.5 µM; in [3], 26 µM; in assay [18], 32.2 µM; in assay [4] it was 26.8 µM; in [5], 28.6 µM. Besides, the TGI in [6] is 31.2 µM; in assay [7], 23.5 µM; in assay [8], 15.8 µM; in assay [9] it was 37.6 µM; in [10] it was 38.8 µM; in [11], greater than 100 µM. Further, the TGI in [12] was greater than 100 µM; in assay [13] it was 25.5 µM; in assay [14], 29.7 µM; in assay [15], greater than 100 µM; in assay [16] it was 30.6 µM; in assay [17], 29.2 µM.
Consider `Cc1nc2ccc(S(=O)(=O)Nc3ccccc3)cc2c(=O)n1NC(=O)CNc1ccccc1`, for which the TGI in assay [1], in assay [2], in assay [3], in [18], in assay [4] and in assay [5] was greater than 100 µM throughout. Further, the TGI in [6], in assay [7], in [8], in assay [9], in assay [10] and in assay [11] was greater than 100 µM each time. The TGI in assay [12], in assay [13], in [14], in [15], in assay [16] and in assay [17] was greater than 100 µM in each case.
On to `COc1cc(CNc2ccc3nc4n(c(=O)c3c2)CCCCC4)cc(OC)c1OC`, for which the TGI was 71.6 µM in assay [1]; greater than 100 µM in assay [2]; greater than 100 µM in assay [3]; greater than 100 µM in [18]; greater than 100 µM in assay [4]; greater than 100 µM in assay [5]. Moreover, the TGI in assay [6] was greater than 100 µM; in assay [7], greater than 100 µM; in assay [8], greater than 100 µM; in assay [9], greater than 100 µM; in [10], greater than 100 µM; in assay [19], 50.8 µM. Also, the TGI in [11] was greater than 100 µM; in [13], greater than 100 µM; in assay [14], greater than 100 µM; in assay [15], greater than 100 µM; in assay [16], 75.8 µM; in assay [17], greater than 100 µM.
On to `O=C(CC(C(=O)c1cccs1)c1ccsc1)c1cccs1` (stereo unspecified), for which the TGI is greater than 100 µM in assay [1]; greater than 100 µM in [2]; greater than 100 µM in [3]; greater than 100 µM in assay [18]; greater than 100 µM in assay [4]; 92.4 µM in assay [6]. For the same compound, the TGI in [7], in [8], in [9], in assay [10], in [19] and in assay [11] was greater than 100 µM in each case. For the same compound, the TGI in assay [12], in [13], in [14], in assay [15], in assay [16] and in assay [17] was greater than 100 µM throughout.
